These are literature values, as cited in patent US20260284015A1, “DOSAGE REGIME OF CRINECERFONT FOR TREATING CONGENITAL ADRENAL HYPERPLASIA” (Neurocrine Biosciences, Inc., priority 2023, published 2026).

The conditions of this series: glucocorticoid dose conversion factor relative to hydrocortisone.

As to `C[C@H]1C[C@@H]2[C@H]([C@@H](O)C[C@@]3(C)[C@H]2CC[C@]3(O)C(=O)CO)[C@@]2(C)C=CC(=O)C=C12` [Methylprednisolone], the “Hydrocortisone dose equivalent conversion” value is on record as 4×.

For the compound `C[C@]12C=CC(=O)C=C1CC[C@@H]1[C@@H]2[C@@H](O)C[C@@]2(C)[C@H]1CC[C@]2(O)C(=O)CO` [Prednisolone], the “Hydrocortisone dose equivalent conversion” value is on record as 4×.

In the case of `C[C@@H]1C[C@H]2[C@@H]3CCC4=CC(=O)C=C[C@]4(C)[C@@]3(F)[C@@H](O)C[C@]2(C)[C@@]1(O)C(=O)CO` [Dexamethasone], the “Hydrocortisone dose equivalent conversion” value is given as 60×.
